Entries after “also recorded” stand apart in the source; their conditions may differ.
Key:
[1] = tested on: H1299 cells; experiment: Western blot of protein expression, H1299; type: cell-based, Human; settings: H1299, 2, 4, 8 μM, 72 h
Experimental: (§1) Western blot was used to analyze protein expressions. Cells were cultured in 12-well plates and treated with different concentrations (0, 2, 4, 8 μM) of compounds for 72 h. Cell proteins were extracted using RIPA buffer with protease/phosphatase inhibitor cocktail (CST). 10%–15% sodium dodecyl sulfate polyacrylamide gel electrophoresis was used to separate proteins and nitrocellulose membranes (Millipore) was used to collected proteins. Antibodies used in western bolt were LC3 (3868s, CST), caspase 3 (9662s, CST), cyclin D (2922s, CST), cyclin E (20808s, CST), β-Catenin (9562s, CST), γH2AX (9718s, CST), PARP (46D11, CST), and β-actin (4967s, CST). Values were expressed as Mean ± SEM, p < 0.05 was considered statistically significant. Data were performed using Graph Prim 7.0.
(§2) Western blot analysis was performed to assess the protein expressions involved in cell growth and cell death processes. H460 and H1299 cells were treated with different concentrations of compound 5i, and whole cell proteins were collected for analysis. […] Autophagy has both tumor suppression and growth promotion effects in cancers, depending on the cellular context and cancer stage. On the one hand, autophagy inhibits cancer development via eliminating dysfunctional proteins and damaged mitochondria. On the other hand, autophagy can promote tumor growth by providing recycled metabolites to support cancer cell survival and growth ([Wang et al., 2023]). […] But in H1299 cells, compound 5i exerted its anticancer ability by suppressing cell division and proliferation.

[2] = tested on: H460 cells; experiment: Western blot of protein expression, H460; type: cell-based, Human; settings: H460, 2, 4, 8 μM, 72 h
Experimental: as §1, §2

With `COc1c2n(cc(C(=O)Nc3cccc(-c4cn(-c5ccccc5OC(F)(F)F)nn4)c3)c1=O)CC1OCC(C)N1C2=O` (centres unmarked) [Compound 5i] the “Cyclin D level” value [1] was “decrease”, the “Cyclin E level” value [1] was “decrease” and the LC3 expression [1] was “no significant differences”. The PARP expression [1] was “remained unaffected”, the “caspase3 expression” value [1] was “no significant differences” and the β-catenin expression [1] was “remained unaltered”. The γ-H2AX expression [1] was “pronounced elevation; also recorded: increased expression”, the “Cyclin D expression” value [2] was “no significant differences” and the “Cyclin E expression” value [2] was “no significant differences”. The LC3 expression [2] was “pronounced elevation; also recorded: significant increase”, the PARP expression [2] was “no significant differences” and the caspase3 expression [2] was “no significant differences”. The β-catenin expression [2] was “no significant differences” and the γ-H2AX expression [2] was “no significant differences”.

Reference: PMC10547880, “Synthesis and biological evaluation of novel 1,2,3-triazole hybrids of cabotegravir: identification of potent antitumor activity against lung cancer” (Frontiers in Pharmacology, 2023)
